The text below walks through data of ChEMBL document CHEMBL5649166, “RIP3 induces apoptosis independent of pronecrotic kinase activity” (Mol Cell, 2014).

Test [1] concerns the target Serine/threonine-protein kinase PAK 5 (Homo sapiens) (UniProt Q9P286). Put plainly: Residual activity of human PAK5 using RRRLSFAEPG as substrate at 1 uM in presence of 32P-ATP by Hotspot assay relative to control.
Test [2] has as its target Macrophage colony-stimulating factor 1 receptor (Homo sapiens) (UniProt P07333). Put plainly: Inhibition of human FMS using poly[Glu:Tyr] (4:1) as substrate at 1 uM in presence of 32P-ATP by Hotspot assay relative to control; values are per cent of control.
Test [3] deals with MAP/microtubule affinity-regulating kinase 3 (Homo sapiens) (UniProt P27448). Put plainly: Inhibition of human MARK3 using KKKVSRSGLYRSPSMPENLNRPR as substrate at 1 uM in presence of 32P-ATP by Hotspot assay relative to control; values are per cent of control.
In test [4] the target is Serine/threonine-protein kinase SIK2 (Homo sapiens) (UniProt Q9H0K1). Put plainly: Inhibition of human SIK2 using AMARAASAAALARRR as substrate at 1 uM in presence of 32P-ATP by Hotspot assay relative to control.
Test [5] has as its target T1, Serine/threonine-protein kinase D2 (Homo sapiens) (UniProt Q9BZL6).
T1 sequence (whole entry): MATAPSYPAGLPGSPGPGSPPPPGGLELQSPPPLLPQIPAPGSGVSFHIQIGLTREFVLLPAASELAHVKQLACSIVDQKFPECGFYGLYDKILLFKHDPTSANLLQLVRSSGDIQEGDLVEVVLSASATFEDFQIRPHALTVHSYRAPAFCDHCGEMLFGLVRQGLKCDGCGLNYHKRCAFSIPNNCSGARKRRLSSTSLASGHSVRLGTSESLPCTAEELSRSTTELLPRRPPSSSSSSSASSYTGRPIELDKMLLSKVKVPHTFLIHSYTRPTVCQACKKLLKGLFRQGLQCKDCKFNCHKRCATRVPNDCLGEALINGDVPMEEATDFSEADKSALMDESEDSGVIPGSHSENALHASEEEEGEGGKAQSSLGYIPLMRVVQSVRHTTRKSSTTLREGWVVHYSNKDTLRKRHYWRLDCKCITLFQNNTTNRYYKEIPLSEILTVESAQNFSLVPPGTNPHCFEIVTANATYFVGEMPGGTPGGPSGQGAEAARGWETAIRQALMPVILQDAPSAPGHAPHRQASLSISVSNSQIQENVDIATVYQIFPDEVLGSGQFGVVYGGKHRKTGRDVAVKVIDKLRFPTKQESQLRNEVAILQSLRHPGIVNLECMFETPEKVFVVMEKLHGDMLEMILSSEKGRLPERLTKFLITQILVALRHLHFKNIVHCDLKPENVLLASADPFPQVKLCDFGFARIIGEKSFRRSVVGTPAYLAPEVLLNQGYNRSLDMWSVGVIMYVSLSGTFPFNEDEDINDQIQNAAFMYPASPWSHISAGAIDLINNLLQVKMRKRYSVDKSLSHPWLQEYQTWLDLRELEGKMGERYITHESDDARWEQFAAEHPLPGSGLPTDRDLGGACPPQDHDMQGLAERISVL
Description: Residual activity of human PKD2/PRKD2 using KKLNRTLSVA as substrate at 1 uM in presence of 32P-ATP by Hotspot assay relative to control.

The target in test [6] is Protein kinase C beta type (Homo sapiens) (UniProt P05771). Description: Inhibition of human PKCb2 using ERMRPRKRQGSVRRRV as substrate at 1 uM in presence of 32P-ATP by Hotspot assay relative to control; values are per cent of control.
Test [7] concerns the target Mast/stem cell growth factor receptor Kit (Homo sapiens) (UniProt P10721). Put plainly: Residual activity of human c-Kit using poly[Glu:Tyr] (4:1) as substrate at 1 uM in presence of 32P-ATP by Hotspot assay relative to control.
The target of test [8] is T2, Dual serine/threonine and tyrosine protein kinase (Homo sapiens) (UniProt Q6XUX3).
T2 sequence (whole entry): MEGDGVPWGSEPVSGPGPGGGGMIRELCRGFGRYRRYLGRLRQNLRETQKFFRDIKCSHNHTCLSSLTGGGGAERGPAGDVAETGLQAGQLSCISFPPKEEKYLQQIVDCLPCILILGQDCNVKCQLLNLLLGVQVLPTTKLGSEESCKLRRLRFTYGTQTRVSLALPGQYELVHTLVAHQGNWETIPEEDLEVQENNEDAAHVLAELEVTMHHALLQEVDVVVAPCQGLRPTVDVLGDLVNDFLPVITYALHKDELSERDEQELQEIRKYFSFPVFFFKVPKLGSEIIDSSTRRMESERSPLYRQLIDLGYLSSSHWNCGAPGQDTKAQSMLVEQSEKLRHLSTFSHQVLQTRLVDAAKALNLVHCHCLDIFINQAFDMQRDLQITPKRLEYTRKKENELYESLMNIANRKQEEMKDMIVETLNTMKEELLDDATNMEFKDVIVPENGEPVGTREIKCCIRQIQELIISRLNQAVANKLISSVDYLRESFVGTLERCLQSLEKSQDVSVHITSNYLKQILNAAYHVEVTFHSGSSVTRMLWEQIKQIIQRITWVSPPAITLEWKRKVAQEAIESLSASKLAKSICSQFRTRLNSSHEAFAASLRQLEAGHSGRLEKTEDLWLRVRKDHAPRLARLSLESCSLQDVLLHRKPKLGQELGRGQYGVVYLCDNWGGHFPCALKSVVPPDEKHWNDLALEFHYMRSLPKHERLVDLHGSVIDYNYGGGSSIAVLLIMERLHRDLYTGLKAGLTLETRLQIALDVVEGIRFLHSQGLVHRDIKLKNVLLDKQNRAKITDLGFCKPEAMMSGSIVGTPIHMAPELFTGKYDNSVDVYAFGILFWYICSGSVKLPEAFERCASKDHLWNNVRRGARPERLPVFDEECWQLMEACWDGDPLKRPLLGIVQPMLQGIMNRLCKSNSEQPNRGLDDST
Description: Inhibition of human RIPK5 using myelin basic protein as substrate at 1 uM in presence of 32P-ATP by Hotspot assay relative to control; values are per cent of control.

In general, inhibition refers to how much of the control response was suppressed.

Chain of Macrophage colony-stimulating factor 1 receptor (Homo sapiens) (P07333 whole entry): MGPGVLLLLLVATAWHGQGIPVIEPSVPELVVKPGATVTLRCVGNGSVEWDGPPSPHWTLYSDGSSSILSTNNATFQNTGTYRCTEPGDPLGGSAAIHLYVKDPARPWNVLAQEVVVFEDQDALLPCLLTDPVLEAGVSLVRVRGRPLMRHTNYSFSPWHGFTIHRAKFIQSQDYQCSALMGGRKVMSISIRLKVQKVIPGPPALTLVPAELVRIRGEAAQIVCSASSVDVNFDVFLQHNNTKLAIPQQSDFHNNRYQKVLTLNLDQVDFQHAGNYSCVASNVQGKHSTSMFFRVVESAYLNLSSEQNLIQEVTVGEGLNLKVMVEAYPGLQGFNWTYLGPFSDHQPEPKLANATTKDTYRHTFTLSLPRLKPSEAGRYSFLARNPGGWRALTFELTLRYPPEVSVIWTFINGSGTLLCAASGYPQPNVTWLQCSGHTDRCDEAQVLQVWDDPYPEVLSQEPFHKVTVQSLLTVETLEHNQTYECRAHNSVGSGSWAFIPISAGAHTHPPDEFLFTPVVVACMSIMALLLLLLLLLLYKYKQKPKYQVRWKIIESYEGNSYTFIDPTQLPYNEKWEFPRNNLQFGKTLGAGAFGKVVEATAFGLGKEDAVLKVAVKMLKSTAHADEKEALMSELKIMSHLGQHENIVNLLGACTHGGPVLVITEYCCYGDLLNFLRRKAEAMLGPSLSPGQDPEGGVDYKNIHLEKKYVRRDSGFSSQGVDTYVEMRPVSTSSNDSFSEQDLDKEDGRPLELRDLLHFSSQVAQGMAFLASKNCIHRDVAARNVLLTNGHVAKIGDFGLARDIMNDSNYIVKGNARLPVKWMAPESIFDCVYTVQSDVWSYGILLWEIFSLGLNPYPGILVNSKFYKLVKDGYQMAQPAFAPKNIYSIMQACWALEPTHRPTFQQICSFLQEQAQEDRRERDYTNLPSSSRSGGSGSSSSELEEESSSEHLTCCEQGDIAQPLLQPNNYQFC
Chain of MAP/microtubule affinity-regulating kinase 3 (Homo sapiens) (P27448 whole entry, looked up): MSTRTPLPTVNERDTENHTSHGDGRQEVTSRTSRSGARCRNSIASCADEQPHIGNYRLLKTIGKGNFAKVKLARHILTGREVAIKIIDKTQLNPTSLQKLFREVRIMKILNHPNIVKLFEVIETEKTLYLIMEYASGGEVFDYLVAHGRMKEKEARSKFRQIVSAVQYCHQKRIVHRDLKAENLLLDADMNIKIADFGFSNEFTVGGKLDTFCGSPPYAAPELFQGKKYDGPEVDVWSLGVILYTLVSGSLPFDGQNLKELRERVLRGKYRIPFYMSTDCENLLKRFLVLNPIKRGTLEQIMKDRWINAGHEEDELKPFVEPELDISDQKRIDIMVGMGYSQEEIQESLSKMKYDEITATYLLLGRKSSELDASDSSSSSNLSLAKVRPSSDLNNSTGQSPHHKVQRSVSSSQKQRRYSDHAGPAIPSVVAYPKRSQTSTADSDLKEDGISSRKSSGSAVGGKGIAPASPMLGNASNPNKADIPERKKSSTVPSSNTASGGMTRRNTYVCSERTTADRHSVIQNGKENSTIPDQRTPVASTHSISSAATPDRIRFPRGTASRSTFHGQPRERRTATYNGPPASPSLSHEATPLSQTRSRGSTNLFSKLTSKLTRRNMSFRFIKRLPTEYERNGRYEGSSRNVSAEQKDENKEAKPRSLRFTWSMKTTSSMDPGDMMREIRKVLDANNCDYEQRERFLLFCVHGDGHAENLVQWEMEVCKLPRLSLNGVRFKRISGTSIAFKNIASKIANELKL
Chain of Protein kinase C beta type (Homo sapiens) (P05771 2-671 limits assumed): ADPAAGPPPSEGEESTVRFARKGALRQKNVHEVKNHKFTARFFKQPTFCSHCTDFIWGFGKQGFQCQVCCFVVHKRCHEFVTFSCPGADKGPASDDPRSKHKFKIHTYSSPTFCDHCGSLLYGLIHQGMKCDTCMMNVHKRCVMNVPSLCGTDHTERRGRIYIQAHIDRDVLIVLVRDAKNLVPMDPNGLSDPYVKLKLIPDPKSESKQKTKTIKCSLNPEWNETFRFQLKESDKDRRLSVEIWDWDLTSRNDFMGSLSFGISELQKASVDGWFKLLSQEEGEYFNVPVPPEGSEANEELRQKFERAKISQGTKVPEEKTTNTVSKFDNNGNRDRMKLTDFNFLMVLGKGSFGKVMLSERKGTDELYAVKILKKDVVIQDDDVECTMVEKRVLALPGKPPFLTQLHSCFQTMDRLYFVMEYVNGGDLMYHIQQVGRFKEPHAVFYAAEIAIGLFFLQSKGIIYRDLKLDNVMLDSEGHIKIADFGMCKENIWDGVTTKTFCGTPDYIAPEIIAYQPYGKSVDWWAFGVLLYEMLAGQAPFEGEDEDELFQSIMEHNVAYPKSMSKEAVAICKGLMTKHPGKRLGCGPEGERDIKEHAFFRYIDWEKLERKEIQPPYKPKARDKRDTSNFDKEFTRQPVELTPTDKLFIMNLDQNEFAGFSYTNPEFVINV
Chain of Serine/threonine-protein kinase SIK2 (Homo sapiens) (Q9H0K1 whole entry, looked up): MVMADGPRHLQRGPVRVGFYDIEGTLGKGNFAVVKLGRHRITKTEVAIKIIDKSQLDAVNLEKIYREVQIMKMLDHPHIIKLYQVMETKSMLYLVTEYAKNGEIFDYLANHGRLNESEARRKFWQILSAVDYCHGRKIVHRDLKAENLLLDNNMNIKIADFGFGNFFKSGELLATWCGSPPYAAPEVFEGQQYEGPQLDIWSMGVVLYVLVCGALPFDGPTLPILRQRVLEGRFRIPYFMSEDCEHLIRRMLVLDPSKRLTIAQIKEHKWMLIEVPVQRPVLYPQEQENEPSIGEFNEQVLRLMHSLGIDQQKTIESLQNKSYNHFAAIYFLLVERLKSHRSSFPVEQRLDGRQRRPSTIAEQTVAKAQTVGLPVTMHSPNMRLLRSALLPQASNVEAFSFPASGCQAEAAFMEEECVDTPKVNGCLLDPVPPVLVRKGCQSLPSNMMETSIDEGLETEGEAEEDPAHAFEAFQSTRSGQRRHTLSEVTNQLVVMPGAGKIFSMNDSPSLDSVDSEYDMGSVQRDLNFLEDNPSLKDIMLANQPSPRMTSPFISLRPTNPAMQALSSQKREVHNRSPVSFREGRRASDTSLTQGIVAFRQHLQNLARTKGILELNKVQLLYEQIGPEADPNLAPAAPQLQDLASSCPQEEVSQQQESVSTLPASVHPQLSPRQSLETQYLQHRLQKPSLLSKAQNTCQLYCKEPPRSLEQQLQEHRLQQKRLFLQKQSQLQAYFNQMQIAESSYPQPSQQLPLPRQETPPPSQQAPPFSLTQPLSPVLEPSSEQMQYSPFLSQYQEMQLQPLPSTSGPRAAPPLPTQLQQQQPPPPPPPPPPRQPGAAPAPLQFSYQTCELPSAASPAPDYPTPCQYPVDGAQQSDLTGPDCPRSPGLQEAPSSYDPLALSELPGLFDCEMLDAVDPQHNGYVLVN
Chain of Serine/threonine-protein kinase PAK 5 (Homo sapiens) (Q9P286 whole entry, looked up): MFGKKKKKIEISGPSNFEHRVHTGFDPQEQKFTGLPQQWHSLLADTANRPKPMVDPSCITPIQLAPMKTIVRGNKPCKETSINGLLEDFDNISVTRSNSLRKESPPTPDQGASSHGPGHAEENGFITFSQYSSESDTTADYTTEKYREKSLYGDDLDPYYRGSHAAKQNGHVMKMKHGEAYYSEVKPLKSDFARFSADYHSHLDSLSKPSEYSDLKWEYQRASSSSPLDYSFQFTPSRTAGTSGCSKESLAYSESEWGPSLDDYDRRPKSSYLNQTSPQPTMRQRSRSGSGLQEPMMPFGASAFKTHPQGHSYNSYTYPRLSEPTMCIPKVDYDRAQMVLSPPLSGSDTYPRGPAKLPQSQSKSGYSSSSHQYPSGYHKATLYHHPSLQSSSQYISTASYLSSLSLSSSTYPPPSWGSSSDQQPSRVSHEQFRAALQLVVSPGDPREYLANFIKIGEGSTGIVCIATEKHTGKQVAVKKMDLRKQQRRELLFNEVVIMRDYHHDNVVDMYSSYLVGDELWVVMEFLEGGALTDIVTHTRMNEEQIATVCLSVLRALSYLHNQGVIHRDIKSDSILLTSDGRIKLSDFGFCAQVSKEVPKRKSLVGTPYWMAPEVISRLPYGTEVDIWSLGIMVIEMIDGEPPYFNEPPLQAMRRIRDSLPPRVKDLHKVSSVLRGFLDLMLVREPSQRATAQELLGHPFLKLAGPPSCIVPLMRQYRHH
Chain of Mast/stem cell growth factor receptor Kit (Homo sapiens) (P10721 whole entry): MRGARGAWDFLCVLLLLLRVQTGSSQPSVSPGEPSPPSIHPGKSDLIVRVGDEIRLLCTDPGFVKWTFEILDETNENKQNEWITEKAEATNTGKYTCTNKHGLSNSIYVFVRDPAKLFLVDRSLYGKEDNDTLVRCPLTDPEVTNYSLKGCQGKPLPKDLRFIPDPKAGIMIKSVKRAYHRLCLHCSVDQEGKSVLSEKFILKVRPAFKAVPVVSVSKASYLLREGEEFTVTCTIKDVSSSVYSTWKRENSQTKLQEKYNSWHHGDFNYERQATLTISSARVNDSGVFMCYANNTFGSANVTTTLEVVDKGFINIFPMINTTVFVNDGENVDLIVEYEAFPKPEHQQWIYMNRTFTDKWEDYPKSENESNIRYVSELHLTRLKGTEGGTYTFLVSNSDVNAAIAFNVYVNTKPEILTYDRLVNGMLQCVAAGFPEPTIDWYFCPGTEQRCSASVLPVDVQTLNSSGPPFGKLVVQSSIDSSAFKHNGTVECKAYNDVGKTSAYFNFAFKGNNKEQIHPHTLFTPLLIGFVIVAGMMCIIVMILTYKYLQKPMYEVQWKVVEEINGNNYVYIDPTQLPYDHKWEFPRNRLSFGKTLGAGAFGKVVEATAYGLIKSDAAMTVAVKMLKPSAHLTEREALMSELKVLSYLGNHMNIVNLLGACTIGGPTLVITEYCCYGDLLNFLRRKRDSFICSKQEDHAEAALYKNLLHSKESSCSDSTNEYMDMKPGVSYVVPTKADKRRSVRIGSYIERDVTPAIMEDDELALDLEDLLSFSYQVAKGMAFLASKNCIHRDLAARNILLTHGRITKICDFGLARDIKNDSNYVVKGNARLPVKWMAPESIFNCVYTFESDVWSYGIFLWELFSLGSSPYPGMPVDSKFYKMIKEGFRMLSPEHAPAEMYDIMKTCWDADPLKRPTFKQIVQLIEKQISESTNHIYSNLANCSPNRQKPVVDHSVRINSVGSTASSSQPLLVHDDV

With `CNC(=O)c1ccc2c(c1)ncn2-c1ccc(CC(=O)OC(C)(C)C)cc1`, the residual activity is 95.7% in test [1]; 91.8% in test [2]; 108% in test [3]; 99% in test [5]; 94.7% in test [6]; 74.4% in test [7]. The residual activity in test [8] turned out to be 95.6%. The inhibition in test [4] was found to be 93.2%.

Turning to `Cc1cc(-c2cnc(N)c3c(-c4ccc5scnc5c4)csc23)n(C)n1`, the residual activity in test [1] turned out to be 99.5%; in test [2], 19.4%; in test [3], 98.2%; in test [5], 39.4%; in test [6], 76.8%; in test [7] it was 41.5%. The residual activity in test [8] was 101%. In addition, in test [4], the inhibition came to 92%.

Take `CC(C)S(=O)(=O)c1ccc2nccc(Nc3ccc4scnc4c3)c2c1`: the residual activity came to 105% in test [1]; 108% in test [2]; 106% in test [3]; 101% in test [5]; 94.8% in test [6]; 95.8% in test [7]. The residual activity in test [8] is 106%. In test [4], the inhibition was 93.1%.
